Assay results from patent US20070128217A1 (priority 2003, published 2007).

Experiments:
[1] = test system: antibodies in sera from SARS patients (sera 1a, 1b, 2, 6, 37, 62, London, SARS-yellow, SARS-green); type: binding, human; parameters: Binding of serum 6 to linear peptides of protein X1 of SARS-CoV Urbani / Binding of serum 37 to linear peptides of protein X1 of SARS-CoV Urbani / Binding of serum 6 to looped/cyclic peptide (PEPSCAN-ELISA) / Binding of serum 37 to looped/cyclic peptide (PEPSCAN-ELISA) / Binding of serum 37 to looped/cyclic peptides of protein X1 of SARS-CoV Urbani / Binding of serum 6 to linear peptides of protein X2 / Binding of serum 37 to linear peptides of protein X2 / Binding of serum 37 to looped/cyclic peptides of protein X2 of SARS-CoV Urbani / Binding of serum 6 to linear peptides of protein M of SARS-CoV Urbani / Binding of serum 37 to linear peptides of protein M of SARS-CoV Urbani / Binding of serum 6 to looped/cyclic peptides of protein M of SARS-CoV Urbani / Binding of serum 37 to looped/cyclic peptides of protein M of SARS-CoV Urbani / Binding of serum 6 to linear peptides of protein X3 of SARS-CoV Urbani / Binding of serum 37 to linear peptides of protein X3 of SARS-CoV Urbani / Binding of serum 37 to looped/cyclic peptides of protein X3 of SARS-CoV Urbani / Binding of serum 6 to linear peptides of protein X4 of SARS-CoV Urbani / Binding of serum 37 to linear peptides of protein X4 of SARS-CoV Urbani / Binding of serum 37 to looped/cyclic peptides of protein X4 of SARS-CoV Urbani / Binding of serum 6 to linear peptides of protein X5 of SARS-CoV Urbani / Binding of serum 37 to linear peptides of protein X5 of SARS-CoV Urbani / Binding of serum 37 to looped/cyclic peptides of protein X5 of SARS-CoV Urbani / Binding of serum 6 to linear peptides of protein N of SARS-CoV Urbani / Binding of serum 37 to linear peptides of protein N of SARS-CoV Urbani / Binding of serum 6 to linear peptide (PEPSCAN-ELISA) / Binding of serum 1a to looped/cyclic peptides of protein N of SARS-CoV Urbani / Binding of serum 1b to looped/cyclic peptides of protein N of SARS-CoV Urbani / Binding of serum 2 to looped/cyclic peptides of protein N of SARS-CoV Urbani / Binding of serum 6 to looped/cyclic peptides of protein N of SARS-CoV Urbani / Binding of serum 37 to looped/cyclic peptides of protein N of SARS-CoV Urbani / Binding of serum 62 to looped/cyclic peptides of protein N of SARS-CoV Urbani / Binding of serum London to looped/cyclic peptides of protein N of SARS-CoV Urbani / Binding of serum SARS-green to looped/cyclic peptides of protein N of SARS-CoV Urbani: unit not given here
[2] = test system: control sera (pooled serum of ten healthy LUMC hospital workers; commercial negative donor pooled serum from the Dutch bloodbank); type: binding, human; parameters: Binding of Control serum LUMC to linear peptides / Binding of Control serum Blood-bank to linear peptides / Binding of Control serum LUMC to looped peptides / Binding of Control Serum Blood-Bank to Looped peptides / Binding of Control serum LUMC to linear peptides of the protein M of SARS-CoV Urbani / Binding of Control serum Blood-bank to linear peptides of the protein M of SARS-CoV Urbani / Binding of Control serum LUMC to looped peptides of the protein M of SARS-CoV Urbani / Binding of Control Serum Blood-Bank to Looped peptides of the protein M of SARS-CoV Urbani: unit not given here
[3] = test system: rabbit serum obtained by immunizing a rabbit with the SARS-CoV strain Frankfurt 1; type: binding; parameters: Binding of a rabbit serum to linear peptides / Binding of a rabbit serum to looped peptides / Rabbit serum linear peptides / Rabbit serum looped peptides / Binding of a rabbit serum to linear peptides of protein N of SARS-CoV Urbani (Rabbit serum linear peptides) / Binding of a rabbit serum to looped/cyclic peptides of protein N of SARS-CoV Urbani (Rabbit serum looped peptides): unit not given here

## LIVAALVFLILCFTI
[1]
  Binding of serum 1a to linear peptides of protein X4 of SARS-CoV Urbani: 0.7
  Binding of serum 1a to looped/cyclic peptides of protein X4 of SARS-CoV Urbani: 0.6
  Binding of serum 1b to linear peptides of protein X4 of SARS-CoV Urbani: 0.5
  Binding of serum 1b to looped/cyclic peptides of protein X4 of SARS-CoV Urbani: 0.3
  Binding of serum 2 to linear peptides of protein X4 of SARS-CoV Urbani: 0.5
  Binding of serum 2 to looped/cyclic peptides of protein X4 of SARS-CoV Urbani: 0.5
  Binding of serum 6 to linear peptides of protein X4 of SARS-CoV Urbani: 0.4
  Binding of serum 6 to looped/cyclic peptides of protein X4 of SARS-CoV Urbani: 0.3
  Binding of serum 37 to linear peptides of protein X4 of SARS-CoV Urbani: 0.6
  Binding of serum 37 to looped/cyclic peptides of protein X4 of SARS-CoV Urbani: 0.6
  Binding of serum 62 to linear peptides of protein X4 of SARS-CoV Urbani: 0.6
  Binding of serum 62 to looped/cyclic peptides of protein X4 of SARS-CoV Urbani: 0.6
  Binding of serum London to linear peptides of protein X4 of SARS-CoV Urbani: 0.6
  Binding of serum London to looped/cyclic peptides of protein X4 of SARS-CoV Urbani: 0.2
  Binding of serum SARS-green to linear peptides of protein X4 of SARS-CoV Urbani: 0.5
  Binding of serum SARS-green to looped/cyclic peptides of protein X4 of SARS-CoV Urbani: 0.4
  Binding of serum SARS-yellow to linear peptides of protein X4 of SARS-CoV Urbani: 0.4
  Binding of serum SARS-yellow to looped/cyclic peptides of protein X4 of SARS-CoV Urbani: 0.5
[2]
  Binding of Control Serum Blood-Bank to Looped peptides: 0.5
  Binding of Control serum Blood-bank to linear peptides: 0.6
  Binding of Control serum LUMC to linear peptides: 0.4
  Binding of Control serum LUMC to looped peptides: 0.5
[3]
  Rabbit serum linear peptides: 0.5
  Rabbit serum looped peptides: 0.4

## QTCTPNVTINCQDPA
[1]
  Binding of serum 1a to linear peptides of protein X5 of SARS-CoV Urbani: 0.8
  Binding of serum 1a to looped/cyclic peptides of protein X5 of SARS-CoV Urbani: 0.4
  Binding of serum 1b to linear peptides of protein X5 of SARS-CoV Urbani: 0.7
  Binding of serum 1b to looped/cyclic peptides of protein X5 of SARS-CoV Urbani: 0.1
  Binding of serum 2 to linear peptides of protein X5 of SARS-CoV Urbani: 0.6
  Binding of serum 2 to looped/cyclic peptides of protein X5 of SARS-CoV Urbani: 0.3
  Binding of serum 6 to linear peptides of protein X5 of SARS-CoV Urbani: 0.8
  Binding of serum 6 to looped/cyclic peptides of protein X5 of SARS-CoV Urbani: 0.2
  Binding of serum 37 to linear peptides of protein X5 of SARS-CoV Urbani: 0.8
  Binding of serum 37 to looped/cyclic peptides of protein X5 of SARS-CoV Urbani: 0.3
  Binding of serum 62 to linear peptides of protein X5 of SARS-CoV Urbani: 0.8
  Binding of serum 62 to looped/cyclic peptides of protein X5 of SARS-CoV Urbani: 0.2
  Binding of serum London to linear peptides of protein X5 of SARS-CoV Urbani: 0.9
  Binding of serum London to looped/cyclic peptides of protein X5 of SARS-CoV Urbani: 0.1
  Binding of serum SARS-green to linear peptides of protein X5 of SARS-CoV Urbani: 0.8
  Binding of serum SARS-green to looped/cyclic peptides of protein X5 of SARS-CoV Urbani: 0.0
  Binding of serum SARS-yellow to linear peptides of protein X5 of SARS-CoV Urbani: 0.1
  Binding of serum SARS-yellow to looped/cyclic peptides of protein X5 of SARS-CoV Urbani: 0.1
[2]
  Binding of Control Serum Blood-Bank to Looped peptides: 0.4
  Binding of Control serum Blood-bank to linear peptides: 0.6
  Binding of Control serum LUMC to linear peptides: 0.4
  Binding of Control serum LUMC to looped peptides: 0.3
[3]
  Rabbit serum linear peptides: 0.3
  Rabbit serum looped peptides: 0.0
